The structures appear in SMILES notation. Read-outs that look alike come from different tables or passages of the source.

For series [1] the following is noted: Beagle, dog, in vivo.
A further series is described as follows: in vivo. The settings on record: dog.
The conditions of series [2]: dog, in vivo, 0.8 mg.

As to `CNC[C@H](O)c1ccc(O)c(O)c1` [epinephrine], the “buccal increase over basal level as share of the increase demonstrated by benchmark intramuscular injection” value in series [1] was “approximately 20%”.

As a reminder, the AUC is concentration integrated over time. Low readings indicate low exposure, high ones high exposure. In general, Cmax refers to the peak of the concentration-time curve. For orientation: Tmax means the time from dosing to the highest level. `C=CCN1CC[C@]23c4c5ccc(O)c4O[C@H]2C(=O)CC[C@@]3(O)[C@H]1C5` [naloxone]: the area under the curve (AUC) was 8.33 ng·h/mL in the series “in vivo” (0.8 mg); 58.3 ng·h/mL in the series “in vivo” (8 mg); 10 ng·h/mL in the series “in vivo” (im, 0.4 mg). The maximum concentration (Cmax) in “in vivo” (0.8 mg) came to 25 ng/mL; in the series “in vivo” (8 mg), 52 ng/mL; in the series “in vivo” (im, 0.4 mg), 9 ng/mL. Moreover, the Tmax in “in vivo” (8 mg) was 18 min; in the series “in vivo” (im, 0.4 mg), 22 min; in series [2] it was 15 min.

The values are drawn from patent publication US20190070396A1 (priority 2017, published 2019).
